Columns and labels:
[1] = molecular target: T1, hDOHH (recombinant human deoxyhypusine hydroxylase) (Homo sapiens, UniProt Q9BU89); assay: [3H]hypusine release assay (periodate oxidation); assay type: biochemical
T1 construct: gene DOHH; hDOHH-pGEX-4T-3, E. coli BL21, GST tag removed with thrombin
T1 sequence (Q9BU89 1-302): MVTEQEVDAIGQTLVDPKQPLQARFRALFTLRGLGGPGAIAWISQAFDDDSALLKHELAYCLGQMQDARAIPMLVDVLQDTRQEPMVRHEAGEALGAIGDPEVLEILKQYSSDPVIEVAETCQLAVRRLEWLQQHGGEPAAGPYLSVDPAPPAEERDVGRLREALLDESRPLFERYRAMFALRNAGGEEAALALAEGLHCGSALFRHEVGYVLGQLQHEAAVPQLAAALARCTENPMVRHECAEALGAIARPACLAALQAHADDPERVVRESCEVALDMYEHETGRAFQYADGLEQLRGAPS

[2] = molecular target: T2, LdDOHH (recombinant L. donovani deoxyhypusine hydroxylase) (Leishmania donovani, UniProt D9IFD5); assay: [3H]hypusine release assay (periodate oxidation), Hill fit; assay type: biochemical; details: read-out: concentration that inhibited 50% of activity
T2 construct: gene DOHH; full length, 326 aa (981 bp ORF, ~36 kDa), pET30a EcoRI-HindIII, 6xHis tag printed as C-terminal (~6 kDa, kept), ~42 kDa, E. coli BL21(DE3), Ni-NTA
T2 sequence (D9IFD5 1-326): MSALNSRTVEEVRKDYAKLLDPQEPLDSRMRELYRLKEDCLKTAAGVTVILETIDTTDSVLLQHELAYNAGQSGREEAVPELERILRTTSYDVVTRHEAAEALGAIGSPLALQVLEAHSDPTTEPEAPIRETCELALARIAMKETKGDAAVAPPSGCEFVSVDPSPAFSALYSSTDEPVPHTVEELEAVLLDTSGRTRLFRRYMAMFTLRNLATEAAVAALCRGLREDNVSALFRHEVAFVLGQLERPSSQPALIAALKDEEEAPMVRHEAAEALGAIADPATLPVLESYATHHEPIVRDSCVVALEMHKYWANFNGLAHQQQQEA

Structure (SMILES): N[C@@H](Cn1ccc(=O)c(O)c1)C(=O)O [mimosine]
- inhibition at 15 µM [1]: ~22%
- IC50 [2]: 13 µM

Structure (SMILES): Cc1cc(C2CCCCC2)n(O)c(=O)c1 [ciclopirox olamine]
- inhibition at 15 µM [1]: ~32%
- IC50 [2]: 13.6 µM

Source: PMC3306375, “A Unique Modification of the Eukaryotic Initiation Factor 5A Shows the Presence of the Complete Hypusine Pathway in Leishmania donovani” (PLoS ONE, 2012)
